Test results as given in PubChem BioAssay (NCI).
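96-well plates; 48 h exposure; 5 concentrations. Endpoints by linear interpolation between flanking doses. Not reached: highest tested concentration assigned. TGI marks complete inhibition of growth.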

How the values were obtained:
Experiment in all cases: NCI anticancer screen, dose series, 48 h
786-0 renal = test system: 786-0 renal
A498 renal = test system: A498 renal
A549 NSCLC = test system: A549 NSCLC
ACHN renal = test system: ACHN renal
CAKI-1 renal = test system: CAKI-1 renal
CCRF-CEM leukemia = test system: CCRF-CEM leukemia
COLO 205 colon = test system: COLO 205 colon
DLD-1 colon = test system: DLD-1 colon
DMS 114 small cell lung = test system: DMS 114 small cell lung
DMS 273 small cell lung = test system: DMS 273 small cell lung
EKVX NSCLC = test system: EKVX NSCLC
HCC-2998 colon = test system: HCC-2998 colon
HCT-116 colon = test system: HCT-116 colon
HCT-15 colon = test system: HCT-15 colon
HL-60(TB) leukemia = test system: HL-60(TB) leukemia
HOP-18 NSCLC = test system: HOP-18 NSCLC
HOP-62 NSCLC = test system: HOP-62 NSCLC
HOP-92 NSCLC = test system: HOP-92 NSCLC
HT29 colon = test system: HT29 colon
IGROV1 ovarian = test system: IGROV1 ovarian
K-562 leukemia = test system: K-562 leukemia
KM12 colon = test system: KM12 colon
KM20L2 colon = test system: KM20L2 colon
LOX IMVI melanoma = test system: LOX IMVI melanoma
LXFL 529 NSCLC = test system: LXFL 529 NSCLC
M14 melanoma = test system: M14 melanoma
M19-MEL melanoma = test system: M19-MEL melanoma
MALME-3M melanoma = test system: MALME-3M melanoma
MOLT-4 leukemia = test system: MOLT-4 leukemia
NCI-H23 lung = test system: NCI-H23 lung
NCI-H460 lung = test system: NCI-H460 lung
OVCAR-3 ovarian = test system: OVCAR-3 ovarian
OVCAR-4 ovarian = test system: OVCAR-4 ovarian
OVCAR-5 ovarian = test system: OVCAR-5 ovarian
OVCAR-8 ovarian = test system: OVCAR-8 ovarian
RPMI-8226 leukemia = test system: RPMI-8226 leukemia
RXF 393 renal = test system: RXF 393 renal
RXF-631 renal = test system: RXF-631 renal
SF-268 CNS = test system: SF-268 CNS
SF-295 CNS = test system: SF-295 CNS
SF-539 CNS = test system: SF-539 CNS
SK-MEL-2 melanoma = test system: SK-MEL-2 melanoma
SK-MEL-5 melanoma = test system: SK-MEL-5 melanoma
SK-OV-3 ovarian = test system: SK-OV-3 ovarian
SN12C renal = test system: SN12C renal
SNB-19 CNS = test system: SNB-19 CNS
SNB-75 CNS = test system: SNB-75 CNS
SNB-78 CNS = test system: SNB-78 CNS
SW-620 colon = test system: SW-620 colon
TK-10 renal = test system: TK-10 renal
U251 CNS = test system: U251 CNS
UACC-257 melanoma = test system: UACC-257 melanoma
UACC-62 melanoma = test system: UACC-62 melanoma
UO-31 renal = test system: UO-31 renal
XF 498 CNS = test system: XF 498 CNS
NCI-H226 lung = test system: NCI-H226 lung
SK-MEL-28 melanoma = test system: SK-MEL-28 melanoma

Measured: TGI

CCC(=O)N1C(=O)OCC1C(C)C (stereo not given)
not listed: NCI-H226 lung | SK-MEL-28 melanoma
> 100 µM: all other assays above

COc1ccc(/C(=N\NC(=O)NN)C(c2ccc(OC)cc2)C2(O)C(=O)Nc3c(Cl)cc(Cl)cc32)cc1 (stereo not given)
not listed: A498 renal | CAKI-1 renal | DMS 273 small cell lung | HCT-15 colon | K-562 leukemia | SF-539 CNS | SK-OV-3 ovarian
> 100 µM: all other assays above
